Measurements: patent US20050070872A1, “Blood bag system and method of inactivating pathogenic microorganisms” (priority 2001, published 2005)
Read-outs that look alike come from different tables or passages of the source.

Tests used:
Simian Virus 40 (SV-40) [1] = assay: Virus inactivation of SV-40 in RC-MAP (Example 1), TCID50 on CV-1 cells; format: cell-based; conditions: for inactivation effect (positive control TCID50 minus inactivated solution TCID50): 7 hours; for TCID50 of the inactivated solution: room temperature (in the dark) 7 hours, positive control 6.5 log10
Description: In a 400-mL CPDA blood bag in the blood bag system shown in FIG. 1, RC-MAP (concentrated erythrocyte preparation) was prepared from blood collected from healthy humans. Thereafter, 2 mL of RC-MAP was sampled in a 15-mL centrifuging tube aseptically, and 2 mL of 10^8 TCID50/mL (50% infection end point) SV-40 was added thereto, followed by gentle stirring. […] After completion of the inactivation, the inactivated solution was centrifuged at 3,000 rpm for 1 minute and the supernatant was used for the evaluation of virus inactivation.
(§1) Evaluation of virus inactivation was performed by TCID50 using a 96-well microplate. In a 25-cm^2 cell culture flask, a CV-1 cell (simian kidney derived cell), which is a proliferating cell of SV-40, was cultivated in a 10% fetal bovine serum-added MEM medium for 3 days for proliferation. Thereafter, the cells were floated with 0.5 mL of 0.05% trypsin-EDTA, to prepare a cell suspension in 25 mL of the 10% fetal bovine serum-added MEM medium.
(§2) After 90 μL of the cell suspension was added to each well of the 96-well microplate, 10 μL of the reaction mixture (the above-mentioned supernatant) was added to each well of the first column of the 96-well microplate and pipetting was performed to stir the resultant. Further, 10 μL of the solution in each well of the first column was added to each well of the second column of the microplate to perform 10-fold gradual dilution operation. This operation was repeated up to the wells of the twelfth column of the microplate. The microplate was incubated in a 5% carbon dioxide gas incubator at 37° C. for 10 days. Then, a cytopathic effect (CPE) by SV-40 was observed using an optical microscope, and TCID50 were calculated as logarithmic values (log10).
At the same time, TCID50 of a positive control, in which a phosphate buffer was added instead of the platinum compound, was calculated as a logarithmic value (log10). A value obtained by subtracting TCID50 of the inactivated solution from TCID50 of the positive control was defined as a killing effect.
In FIG. 3, the inactivation effect means a value obtained by subtracting TCID50 of the inactivated solution (logarithmic value (log10)) from TCID50 of the above-mentioned positive control (logarithmic value (log10)).

Simian Virus 40 (SV-40) [2] = assay: Virus inactivation of SV-40 in RC-MAP using the blood bag system (Example 2), TCID50 on CV-1 cells; format: cell-based; conditions: for inactivation effect (positive control TCID50 minus inactivated solution TCID50): 7 hours; for TCID50 of the inactivated solution: room temperature (in the dark) 7 hours, positive control 6.0 log10
Description: Blood was collected from healthy humans and RC-MAP (concentrated erythrocyte preparation) was prepared, which was introduced into the blood bag 1 (400-mL CPDA blood bag) in the blood bag system shown in FIG. 2. Thereafter, 10^8 TCID50/mL (50% infection endpoint) of SV-40 per 2 mL of RC-MAP was added to the blood bag 1 from the air-bleeding tube 10 by using a syringe, and the blood bag 1 was gently stirred.
Thereafter, the blood bag was stirred gently, and the resultant was allowed to react at room temperature (in the dark) for 7 hours to effect inactivation. After completion of the inactivation, 4 mL of the inactivated solution was sampled from the blood bag 1 and centrifuged at 3,000 rpm for 1 minute. The supernatant was used for the evaluation of virus inactivation.
as §1, §2
At the same time, TCID50 of a positive control, in which a phosphate buffer was added instead of the platinum compound, was calculated as a logarithmic value (log10). A value obtained by subtracting TCID50 of the inactivated solution from TCID50 of the positive control was defined as a killing effect (inactivation effect).
In FIG. 4, the inactivation effect means a value obtained by subtracting TCID50 of the inactivated solution (logarithmic value (log10)) from TCID50 of the above-mentioned positive control (logarithmic value (log10)).

[3] = system: initial culture cells of Ehrlich cancer; conditions: cited from earlier work
Yersinia enterocolitica [4] = assay: Bacteria inactivation of Yersinia enterocolitica in RC-MAP (Example 5), colony count; format: cell-based; conditions: for Number of survival bacteria: RC-MAP, 7 hours
Description: After gentle stirring, the resultant was allowed to react at room temperature (in the dark) for 7 hours to effect inactivation.
This was cultivated at 31° C. for 2 days.
Note that solution to which no cisplatin was added was defined as a positive control. A bacteria inactivation effect was defined by a value obtained by subtracting the number of survival bacteria (logarithmic value (log10)) in cisplatin-added inactivated solution from the number of survival bacteria (logarithmic value (log10)) in the positive control.

[5] = system: Human Cytomegalovirus (HCMV); assay: Virus inactivation of HCMV in RC-MAP (Example 3), TCID50 on HEL cells; format: cell-based; conditions: 1.67 mM solution, 7 hours
Description: In the blood bag 1 (a 400-mL CPDA blood bag) in the blood bag system shown in FIG. 1, RC-MAP (concentrated erythrocyte preparation) was prepared from blood collected from healthy humans. Thereafter, 2 mL of RC-MAP was sampled in a 15-mL centrifuging tube aseptically, and 2 mL of 10^7 TCID50/mL HCMV was added thereto, followed by gentle stirring. […] After completion of the inactivation, the inactivated solution was centrifuged at 3,000 rpm for 1 minute and the supernatant was used for the evaluation of virus inactivation.
Evaluation of virus inactivation was performed by TCID50 using a 96-well microplate. In a 25-cm^2 cell culture flask, a HEL cell (primary human embryonic lung fibroblasts cell), which is a proliferating cell of HCMV, was cultivated in a 10% fetal bovine serum-added MEM medium for 3 days for proliferation. […]
After 90 μL of this cell suspension was added to each well of the 96-well microplate, 10 μL of the solution (the above-mentioned supernatant) was added to each well of the first column of the 96-well microplate and pipetting was performed to stir the resultant. […] Then, a cytopathic effect (CPE) by HCMV was observed using an optical microscope, and TCID50 was calculated as a logarithmic value (log10) . At the same time, TCID50 of a positive control, in which a phosphate buffer was added instead of the platinum compound, was calculated as a logarithmic value (log10).

[6] = system: Mouse Hepatitis Virus (MHV); assay: Virus inactivation of MHV in RC-MAP (Example 4), TCID50 on DBT cells; format: cell-based; conditions: 1.67 mM solution, 7 hours
Description: Thereafter, 2 mL of RC-MAP was sampled in a 15-mL centrifuging tube aseptically, and 2 mL of 10^7 TCID50/mL MHV was added thereto, followed by gentle stirring. […] After completion of the inactivation, the inactivated solution was centrifuged at 3,000 rpm for 1 minute and the supernatant was used for the evaluation of virus inactivation.
Evaluation of virus inactivation was performed by TCID50 using a 96-well microplate. In a 25-cm^2 cell culture flask, a DBT cell, which is a proliferating cell of MHV, was cultivated in a 5% fetal bovine serum-added MEM medium for 3 days for proliferation. Thereafter, the cells were floated with 0.5 mL of 0.05% trypsin-EDTA, to prepare a cell suspension in 25 mL of the 10% fetal bovine serum-added MEM medium.
After 90 μL of this cell suspension was added to each well of the 96-well microplate, 10 μL of the solution was added to each well of the first column of the 96-well microplate and pipetting was performed to stir the resultant. […] Then, a cytopathic effect (CPE) by MHV was observed using an optical microscope, and TCID50 was calculated as a logarithmic value (log10). At the same time, TCID50 of a positive control, in which a phosphate buffer was added instead of the platinum compound, was calculated as a logarithmic value (log10). […]

Yersinia enterocolitica [7] = system: Yersinia enterocolitica
Description: In the blood bag 1 (400-mL CPDA blood bag) of the blood bag system shown in FIG. 1, RC-MAP (concentrated erythrocyte preparation) was prepared from blood collected from healthy humans. […] To the resultant was added 2 mL of a 168 mM L-methionine solution having dissolved L-methionine in physiological saline, for a reaction at room temperature for 30 minutes.
Similarly, as neutralizing agents, L-methionine solutions having concentrations of 84 mM, 42 mM, 21 mM, 10.5 mM, 5.25 mM, 2.63 mM, and 1.31 mM, respectively, obtained by dissolving L-methionine in physiological saline or sodium thiosulfate solutions having concentrations of 168 mM, 84 mM, 42 mM, 21 mM, 10.5 mM, 5.25 mM, 2.63 mM, and 1.31 mM, respectively, obtained by dissolving sodium thiosulfate in physiological saline were used to effect a reaction. […] Thereafter, 10 μL of 10^8 CFU/mL Yersinia enterocolitica was added to each solution, and the number of bacterial cells after stirring was measured.
Measurement of bacterial cells was conducted on solutions obtained by repeating 3 times the 10-fold gradual dilution operation consisting of adding 1 mL of the inactivated solution to 9 mL of sterilized physiological saline, stirring the mixture by using a touch mixer, and further adding 1 mL of the resultant to 9 mL of physiological saline for dilution. […], 1 mL or 100 μL of the diluted solution in each stage was mixed in a petri dish having a diameter of 9 cm and containing 15 mL soybean casein digest agar medium. This was cultivated at 31° C. for 2 days. The number of colonies emerged was defined as number of survival bacteria, and a logarithmic value (log10) thereof was defined as a neutralization effect.

SV-40 = conditions: 3.5 mM cisplatin solution then 175 mM sodium thiosulfate solution
Description: as §1
as §2, with “[…] A value obtained by subtracting TCID50 of the inactivated solution from TCID50 of the positive control was defined as” for “Then,”, “killing effect.” for “cytopathic effect (CPE) by SV-40 was observed using an optical microscope, and TCID50 were calculated as logarithmic values (log10).”

## N.N.O=C([O-])C1(C(=O)[O-])CCC1.[Pt+2] [carboplatin]
Simian Virus 40 (SV-40) [1]; 3.5 mM solution
  inactivation effect (positive control TCID50 minus inactivated solution TCID50): 1.00 log10
  TCID50 of the inactivated solution: 5.50 log10
Simian Virus 40 (SV-40) [2]; 3.5 mM solution
  inactivation effect (positive control TCID50 minus inactivated solution TCID50): 1.5 log10
  TCID50 of the inactivated solution: 4.5 log10

## N.N.[Cl][Pt][Cl] [cisplatin]
[3]
  effective concentration against cancer cells (antiviral activity (IC50)): 0.25 µg/mL
Yersinia enterocolitica [4]; cisplatin 0.0209 mM
  Bacteria killing effect: 0.18 log10
  Number of survival bacteria: 4.82 log10
Yersinia enterocolitica [4]; cisplatin 0.042 mM
  Bacteria killing effect: 0.48 log10
  Number of survival bacteria: 4.52 log10
Yersinia enterocolitica [4]; cisplatin 0.083 mM
  Bacteria killing effect: 1.21 log10
  Number of survival bacteria: 3.79 log10
Yersinia enterocolitica [4]; cisplatin 0.17 mM
  Bacteria killing effect: 2.20 log10
  Number of survival bacteria: 2.80 log10
Yersinia enterocolitica [4]; cisplatin 0.33 mM
  Bacteria killing effect: 2.73 log10
  Number of survival bacteria: 2.27 log10
Yersinia enterocolitica [4]; cisplatin 0.67 mM
  Bacteria killing effect: 3.52 log10
  Number of survival bacteria: 1.48 log10
Yersinia enterocolitica [4]; cisplatin 1.33 mM
  Bacteria killing effect: 4.94 log10
Yersinia enterocolitica [4]; cisplatin 1.33 mM, positive control 5.00 log10
  Number of survival bacteria: 0.06 log10
[5]
  HCMV killed (anti-HCMV inactivation effect): 4.00 log10
[6]
  MHV killed (MHV inactivation effect): 4.00 log10
Simian Virus 40 (SV-40) [1]; 1.67 mM solution
  inactivation effect (positive control TCID50 minus inactivated solution TCID50): 5.25 log10
  TCID50 of the inactivated solution: 1.25 log10
Simian Virus 40 (SV-40) [2]; 1.67 mM solution
  inactivation effect (positive control TCID50 minus inactivated solution TCID50): 5.0 log10
  TCID50 of the inactivated solution: 1.0 log10

## CSCC[C@H](N)C(=O)O [methionine, L-methionine]
Yersinia enterocolitica [7]; methionine 0.44 mM after 4.00 mM cisplatin solution
  Number of survival bacteria (neutralization effect): 0.34 log10
Yersinia enterocolitica [7]; methionine 0.88 mM after 4.00 mM cisplatin solution
  Number of survival bacteria (neutralization effect): 0.73 log10
Yersinia enterocolitica [7]; methionine 1.75 mM after 4.00 mM cisplatin solution
  Number of survival bacteria (neutralization effect): 0.89 log10
Yersinia enterocolitica [7]; methionine 3.5 mM after 4.00 mM cisplatin solution
  Number of survival bacteria (neutralization effect): 1.22 log10
Yersinia enterocolitica [7]; methionine 7 mM after 4.00 mM cisplatin solution
  Number of survival bacteria (neutralization effect): 1.43 log10
Yersinia enterocolitica [7]; methionine 14 mM after 4.00 mM cisplatin solution
  Number of survival bacteria (neutralization effect): 1.87 log10
Yersinia enterocolitica [7]; methionine 28 mM after 4.00 mM cisplatin solution
  Number of survival bacteria (neutralization effect): 3.36 log10
Yersinia enterocolitica [7]; methionine 56 mM after 4.00 mM cisplatin solution, 30 minutes, same as without cisplatin
  Number of survival bacteria (neutralization effect): 5.1 log10

## [NH2][Pt]1([NH2])[O]CC(=O)[O]1 [nedaplatin]
Simian Virus 40 (SV-40) [1]; 3.5 mM solution
  inactivation effect (positive control TCID50 minus inactivated solution TCID50): 4.25 log10
  TCID50 of the inactivated solution: 2.25 log10
Simian Virus 40 (SV-40) [2]; 3.5 mM solution
  inactivation effect (positive control TCID50 minus inactivated solution TCID50): 3.5 log10
  TCID50 of the inactivated solution: 2.5 log10

## O=S([O-])([O-])=S.[Na+].[Na+] [sodium thiosulfate]
SV-40
  killing effect (inactivation effect of SV-40) after neutralization: no killing effect
SV-40; 30 minutes, positive control 6.00 log10
  TCID50 after inactivator and neutralizing agent: 6.00 log10
Yersinia enterocolitica [7]; sodium thiosulfate 0.44 mM after 4.00 mM cisplatin solution
  Number of survival bacteria (neutralization effect): 0.44 log10
Yersinia enterocolitica [7]; sodium thiosulfate 0.88 mM after 4.00 mM cisplatin solution
  Number of survival bacteria (neutralization effect): 0.86 log10
Yersinia enterocolitica [7]; sodium thiosulfate 1.75 mM after 4.00 mM cisplatin solution
  Number of survival bacteria (neutralization effect): 1.28 log10
Yersinia enterocolitica [7]; sodium thiosulfate 3.5 mM after 4.00 mM cisplatin solution
  Number of survival bacteria (neutralization effect): 1.51 log10
Yersinia enterocolitica [7]; sodium thiosulfate 7 mM after 4.00 mM cisplatin solution
  Number of survival bacteria (neutralization effect): 1.98 log10
Yersinia enterocolitica [7]; sodium thiosulfate 14 mM after 4.00 mM cisplatin solution
  Number of survival bacteria (neutralization effect): 2.35 log10
Yersinia enterocolitica [7]; sodium thiosulfate 28 mM after 4.00 mM cisplatin solution
  Number of survival bacteria (neutralization effect): 4.22 log10
Yersinia enterocolitica [7]; sodium thiosulfate 56 mM after 4.00 mM cisplatin solution, 30 minutes, same as without cisplatin
  Number of survival bacteria (neutralization effect): 5.1 log10
